13 molecules from US9725459B2, “3-oxo-tetrahydro-furo[3,2-B]pyrrol-4(5H)-yl) derivatives I” (GRÜNENTHAL GMBH, priority 2014, dated 2017) can be followed below.

One may read the inhibition as the relative decrease from the control value, in per cent. One may read the Ki as the equilibrium dissociation constant of an inhibitor or competing ligand from its target.

Common to all, as to assay type: biochemical
In one experiment the target is human cathepsin L (CatL) (Homo sapiens (Human), UniProt P07711). The experiment in a line: CatL functional enzyme assay. The note with it: read-out: hCatL, inhibition [%] at 31.6 μM.
In a further experiment the target is human cathepsin K (CatK) (Homo sapiens (Human), UniProt P43235). The experiment in a line: CatK functional enzyme assay. Particulars: recombinant human CatK, substrate Z-FR-AMC 40 μM, pH 5.5; Ki by Cheng Prusoff equation; read-out: hCatK, Ki. Summed up:
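Recombinant human enzymes in 50 mM NaOAc, 10 mM EDTA, 1 mM DTT, 0.01% Triton X-100, pH 5.5, 10 min at RT. CatK: 0.00175 mU/well with 40 μM Z-FR-AMC; CatL: 0.000874 mU/well with 40 μM Z-VVR-AMC. AMC fluorescence read; IC50 converted to Ki via Cheng–Prusoff.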

For the next experiment, the target named is human cathepsin S (CatS) (Homo sapiens (Human), UniProt P25774). The experiment in a line: CatS functional enzyme assay. Particulars: for Selectivity Ki(hCatS)/Ki(hCatK): ratio Ki(hCatS)/Ki(hCatK); for Ki: recombinant human CatS, substrate Z-VVR-AMC 5 μM, pH 6.5, Ki by Cheng Prusoff equation, read-out: hCatS, Ki. Summed up:
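Recombinant human enzymes were incubated 10 min at RT with AMC substrate: CatS 0.0007 mU/well with Z-VVR-AMC 5 µM; CatK 0.00175 mU/well with Z-FR-AMC 40 µM; CatL 0.000874 mU/well with Z-VVR-AMC 40 µM. Fluorescence gave IC50, converted to Ki by Cheng-Prusoff.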

human cathepsin L (CatL), sequence (P07711 114-333): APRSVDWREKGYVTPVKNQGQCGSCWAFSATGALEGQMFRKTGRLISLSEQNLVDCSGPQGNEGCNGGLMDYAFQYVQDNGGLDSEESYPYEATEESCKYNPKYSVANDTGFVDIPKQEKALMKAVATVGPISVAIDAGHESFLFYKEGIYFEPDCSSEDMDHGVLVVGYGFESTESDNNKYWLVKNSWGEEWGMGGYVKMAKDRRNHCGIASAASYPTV
human cathepsin S (CatS), sequence (P25774 115-331): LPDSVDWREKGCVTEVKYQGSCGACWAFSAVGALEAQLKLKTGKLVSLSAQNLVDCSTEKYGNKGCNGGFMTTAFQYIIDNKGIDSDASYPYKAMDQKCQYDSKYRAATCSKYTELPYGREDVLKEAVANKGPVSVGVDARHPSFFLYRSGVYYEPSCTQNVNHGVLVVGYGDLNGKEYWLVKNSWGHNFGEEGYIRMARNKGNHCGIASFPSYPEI
human cathepsin K (CatK), sequence (P43235 115-329): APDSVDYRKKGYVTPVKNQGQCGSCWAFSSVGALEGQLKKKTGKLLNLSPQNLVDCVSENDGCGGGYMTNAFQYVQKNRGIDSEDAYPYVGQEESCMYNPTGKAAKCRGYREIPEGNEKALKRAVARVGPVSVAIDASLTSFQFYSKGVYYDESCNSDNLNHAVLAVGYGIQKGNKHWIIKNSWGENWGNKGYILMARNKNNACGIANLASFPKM

Take `N#Cc1cncc(-c2ccc(C(=O)N[C@H](C(=O)N3C[C@H](Cl)[C@H]4OCC(=O)[C@H]43)C3CCCCC3)s2)c1` [Example 39, N-((S)-2-((3aS,6S,6aS)-6-chloro-3-oxotetrahydro-2H-furo[3,2-b]pyrrol-4(5H)-yl)-1-cyclohexyl-2-oxoethyl)-5-(5-cyanopyridin-3-yl)thiophene-2-carboxamide]: the inhibition at 31.6 µM at human cathepsin L (CatL) is 19%. Also, the Ki on human cathepsin K (CatK) was determined as 19 nM. On human cathepsin S (CatS), the “Selectivity Ki(hCatS)/Ki(hCatK)” value turned out to be 11.8 and the Ki was determined as 225 nM.
Turning to `CCc1cc(-c2cnc(C(=O)N[C@H](C(=O)N3C[C@H](Cl)[C@H]4OCC(=O)[C@H]43)C3CCCCC3)s2)ccn1` [Example 87, N-((S)-2-((3aS,6S,6aS)-6-chloro-3-oxotetrahydro-2H-furo[3,2-b]pyrrol-4(5H)-yl)-1-cyclohexyl-2-oxoethyl)-5-(2-ethylpyridin-4-yl)thiazole-2-carboxamide], on human cathepsin L (CatL), the inhibition at 31.6 µM stood at 14%. Besides, the Ki at human cathepsin K (CatK) was 4 nM. Further, on human cathepsin S (CatS), the “Selectivity Ki(hCatS)/Ki(hCatK)” value is given as 16.2 and the Ki was found to be 59 nM.
On the same counts, the results for `O=C(N[C@H](C(=O)N1C[C@H](Cl)[C@H]2OCC(=O)[C@H]21)C1CCCCC1)c1sc(-c2ccnnc2)cc1F` [Example 60, N-((S)-2-((3aS,6S,6aS)-6-chloro-3-oxotetrahydro-2H-furo[3,2-b]pyrrol-4(5H)-yl)-1-cyclohexyl-2-oxoethyl)-3-fluoro-5-(pyridazin-4-yl)thiophene-2-carboxamide] are 11%, 104 nM, 2.3 and 238 nM.
Taken in the same sequence, the figures for `Cc1cc(-c2cnc(C(=O)N[C@H](C(=O)N3C[C@H](Cl)[C@H]4OCC(=O)[C@H]43)C3CCCCC3)s2)cn[n+]1[O-]` [Example 77, 4-(2-(((S)-2-((3aS,6S,6aS)-6-chloro-3-oxotetrahydro-2H-furo[3,2-b]pyrrol-4(5H)-yl)-1-cyclohexyl-2-oxoethyl)carbamoyl)thiazol-5-yl)-6-methylpyridazine 1-oxide] were 12%, 20 nM, 1.3 and 25 nM.
Taken in the same sequence, the figures for `O=C(N[C@H](C(=O)N1C[C@H](Cl)[C@H]2OCC(=O)[C@H]21)C1CCCCC1)c1ncc(-c2ccccn2)s1` [Example 46, N-((S)-2-((3aS,6S,6aS)-6-chloro-3-oxotetrahydro-2H-furo[3,2-b]pyrrol-4(5H)-yl)-1-cyclohexyl-2-oxoethyl)-5-(pyridin-2-yl)thiazole-2-carboxamide] were 6%, 9 nM, 45.9 and 413 nM.
Consider `Cc1nnccc1-c1ccc(C(=O)N[C@H](C(=O)N2C[C@H](Cl)[C@H]3OCC(=O)[C@H]32)C2CCCCC2)s1` [Example 58, N-((S)-2-((3aS,6S,6aS)-6-chloro-3-oxotetrahydro-2H-furo[3,2-b]pyrrol-4(5H)-yl)-1-cyclohexyl-2-oxoethyl)-5-(3-methylpyridazin-4-yl)thiophene-2-carboxamide], for which the inhibition at 31.6 µM on human cathepsin L (CatL) was 21%. Moreover, the values for the Ki at human cathepsin K (CatK) and at human cathepsin S (CatS) were 34 nM and 51 nM, respectively. On human cathepsin S (CatS), the “Selectivity Ki(hCatS)/Ki(hCatK)” value was found to be 1.5.
Taken in the same sequence, the figures for `O=C(N[C@H](C(=O)N1C[C@H](Cl)[C@H]2OCC(=O)[C@H]21)C1CCCCC1)c1sc(-c2cccnn2)cc1F` [Example 59, N-((S)-2-((3aS,6S,6aS)-6-chloro-3-oxotetrahydro-2H-furo[3,2-b]pyrrol-4(5H)-yl)-1-cyclohexyl-2-oxoethyl)-3-fluoro-5-(pyridazin-3-yl)thiophene-2-carboxamide] were 0%, 118 nM, 726 nM and 6.2.
Consider `O=C(N[C@H](C(=O)N1C[C@H](Cl)[C@H]2OCC(=O)[C@H]21)C1CCCCC1)c1ncc(-c2cccnc2)s1` [Example 45, N-((S)-2-((3aS,6S,6aS)-6-chloro-3-oxotetrahydro-2H-furo[3,2-b]pyrrol-4(5H)-yl)-1-cyclohexyl-2-oxoethyl)-5-(pyridin-3-yl)thiazole-2-carboxamide], for which the inhibition at 31.6 µM at human cathepsin L (CatL) was found to be 26%. Further, the Ki was found to be 8 nM on human cathepsin K (CatK) and 262 nM on human cathepsin S (CatS). Also, at human cathepsin S (CatS), the “Selectivity Ki(hCatS)/Ki(hCatK)” value turned out to be 32.8.
Taken in the same sequence, the figures for `O=C(N[C@H](C(=O)N1C[C@H](Cl)[C@H]2OCC(=O)[C@H]21)C1CCCCC1)c1ccc(-c2cc(C3CC3)cnn2)s1` [Example 74, N-((S)-2-((3aS,6S,6aS)-6-chloro-3-oxotetrahydro-2H-furo[3,2-b]pyrrol-4(5H)-yl)-1-cyclohexyl-2-oxoethyl)-5-(5-cyclopropylpyridazin-3-yl)thiophene-2-carboxamide] were 19%, 22 nM, 7 nM and 0.3.
Taken in the same sequence, the figures for `Cc1ccc(-c2ccc(C(=O)N[C@H](C(=O)N3C[C@H](Cl)[C@H]4OCC(=O)[C@H]43)C3CCCCC3)s2)nn1` [Example 35, N-((S)-2-((3aS,6S,6aS)-6-chloro-3-oxotetrahydro-2H-furo[3,2-b]pyrrol-4(5H)-yl)-1-cyclohexyl-2-oxoethyl)-5-(6-methylpyridazin-3-yl)thiophene-2-carboxamide] were 23%, 16 nM, 172 nM and 10.7.
On the same counts, the results for `O=C(N[C@H](C(=O)N1C[C@H](Cl)[C@H]2OCC(=O)[C@H]21)C1CCCCC1)c1ccc(-c2cccnn2)s1` [Example 6, N-((S)-2-((3aS,6S,6aS)-6-chloro-3-oxotetrahydro-2H-furo[3,2-b]pyrrol-4(5H)-yl)-1-cyclohexyl-2-oxoethyl)-5-(pyridazin-3-yl)thiophene-2-carboxamide] are 36%, 11 nM, 60 nM and 5.5.
With `Cc1cc(-c2ccc(C(=O)N[C@H](C(=O)N3C[C@H](Cl)[C@H]4OCC(=O)[C@H]43)C3CCCCC3)s2)c(C)nn1` [Example 89, N-((S)-2-((3aS,6S,6aS)-6-chloro-3-oxotetrahydro-2H-furo[3,2-b]pyrrol-4(5H)-yl)-1-cyclohexyl-2-oxoethyl)-5-(3,6-dimethylpyridazin-4-yl)thiophene-2-carboxamide], the inhibition at 31.6 µM on human cathepsin L (CatL) was 12%. In addition, the Ki on human cathepsin K (CatK) was 18 nM; on human cathepsin S (CatS), 13 nM. Further, on human cathepsin S (CatS), the “Selectivity Ki(hCatS)/Ki(hCatK)” value turned out to be 0.7.
Taken in the same sequence, the figures for `Cc1ncc(-c2ccc(C(=O)N[C@H](C(=O)N3C[C@H](Cl)[C@H]4OCC(=O)[C@H]43)C3CCCCC3)s2)c(C)n1` [Example 81, N-((S)-2-((3aS,6S,6aS)-6-chloro-3-oxotetrahydro-2H-furo[3,2-b]pyrrol-4(5H)-yl)-1-cyclohexyl-2-oxoethyl)-5-(2,4-dimethylpyrimidin-5-yl)thiophene-2-carboxamide] were 18%, 11 nM, 133 nM and 12.1.
